Assay results taken from paper PMC10298626 (International Journal of Molecular Sciences, 2023).

Tested on: TNF-α mRNA
Test: TNF-α mRNA expression (qRT-PCR) in LPS-stimulated RAW264.7 cells
Assay type: cell-based, Mouse
Conditions: 20, 40, and 80 μM; 2 h pretreatment, LPS 500 ng/mL 6 h
Method: RAW264.7 cells were seeded into a 6-well plate (2 × 10^6 cells/well) and cultured for 24 h. The cells were treated with coumarin derivative 2 at 20, 40, and 80 μM and cultured for 2 h and with LPS (500 ng/mL) for 6 h.
The cells were washed with phosphate-buffered saline (PBS) and lysed with the RNeasy Mini kit (Qiagen, Hilden, Germany) for RNA isolation. RNA was converted to cDNA using the AccuPower reverse transcriptase Premix Kit (Bioneer, Daejeon, Republic of Korea). A Power SYBR Green PCR Master Mix (Applied Biosystems, Waltham, MN, USA) was used to perform polymerase chain reaction amplification. Amplification conditions were selected within the Quant 3 PCR system (Applied Biosystems). The data were normalized to the amount of glyceraldehyde 3-phosphate dehydrogenase.
Figure 3 Effects of coumarin derivative 2 on IL-6 and TNF-α production and mRNA expression in LPS-stimulated RAW264.7 cells. (a) Effect of coumarin derivative 2 on TNF-α and IL-6 production in RAW264.7 cells. The RAW264.7 cells (1 × 10^5/well, 96-well plates) were pretreated with coumarin derivative 2 (20, 40, and 80 μM) for 2 h and incubated with LPS (500 ng/mL) for 20 h. An ELISA kit was used to analyze cell supernatants for TNF-α and IL-6. […] IL-6 and TNF-α mRNA expression levels were measured via a real-time quantitative reverse transcription polymerase chain reaction.

In the case of `N#CC1=C(N)Oc2c(c(=O)oc3ccccc23)C1c1cccc(F)c1` (stereo not shown) [Coumarin derivative 2], the “TNF-α mRNA expression” value is reported as “significantly suppressed”.
